In patent publication US8236492B2 (priority 2003, dated 2012):

Each compound was assayed on ileal fluid dependant organism (IFDO).
Format: cell-based

Point of comparison: `Oc1ccc(Cl)cc1Cc1cc(Cl)ccc1O` [2,2-Methylenebis(4-chlorophenol)], “Log10 Reduction of Colonies” value 3.8. Against it:
- Cc1ccc(C(C)C)c(O)c1 [Thymol] — lower, 3.2
- Cc1ccc(O)cc1 [p-Cresol] — within 0.2 log units, 3.7
- Oc1cc(Cl)ccc1Oc1ccc(Cl)cc1Cl [Triclosan] — lower, 2.7
- Oc1ccccc1 [Phenol] — lower, 3.6
- Cc1cc(O)ccc1Cl [p-Chloro-m-cresol] — higher, 4.3
- Oc1ccc(Cl)cc1Cc1ccccc1 [o-Benzyl-p-chlorophenol] — higher, 4.7
- Oc1cc(Cl)c(Cl)cc1Cl [2,4,5-Trichlorophenol] — higher, 4.9
- Oc1ccccc1-c1ccccc1 [o-Phenylphenol] — higher, 4.8
- Cc1cccc(O)c1C [2,3-Dimethylphenol] — higher, 4.1
- Oc1c(Cl)cc(Cl)c(Cl)c1Cc1c(O)c(Cl)cc(Cl)c1Cl [Hexachlorophene] — lower, 3.6

`CCC(C)(C)c1ccc(O)cc1` [PTAP, p-tertiary-amylphenol] was tested, and the “efficacy of LpH phenols tested at equivocal concentrations” value (“efficacy of LpH phenols tested” below) was “less effective”.
With `Oc1ccc(Cl)cc1Cc1ccccc1` [o-Benzyl-p-chlorophenol] the “efficacy of LpH phenols tested” value was “optimal”.
`Oc1ccccc1-c1ccccc1` [o-Phenylphenol] was tested, and the “efficacy of LpH phenols tested” value was “optimal”.
